Reference: article PMC6761534 (Antimicrobial Agents and Chemotherapy, 2019)
Converted amounts (≈) assume the structure as drawn.

Assays:
[1] = biological target: M. smegmatis F-ATP synthase (Mycolicibacterium smegmatis, UniProt A0R1Z9+A0R205); assay: biochemical; parameters: species or system Mycobacterium smegmatis
M. bovis BCG [2] = assay: microbe, parasite or virus in culture; format: cell-based; settings: Mycobacterium tuberculosis variant bovis BCG, 120 h, read-out: Growth inhibition MIC90
M. smegmatis WT = assay: microbe, parasite or virus in culture; format: cell-based, Mycobacterium smegmatis; settings: Mycolicibacterium smegmatis; for MIC50: 24 h, read-out: MIC50 ± SD, M. smegmatis WT
[3] = tested on: M. smegmatis ε subunit overexpresser strain; assay: microbe, parasite or virus in culture; format: cell-based; settings: Mycolicibacterium smegmatis, 24 h, 1 day, read-out: MIC50 ± SD, ε overexpresser
[4] = tested on: mycobacterial F-ATP synthase (ATPase activity); assay: Continuous ATP hydrolysis assay with M. smegmatis inverted membrane vesicles; format: biochemical, Mycobacterium smegmatis
M. tuberculosis H37Rv = assay: microbe, parasite or virus in culture; format: cell-based; settings: Mycobacterium tuberculosis, 168 h, read-out: M. tuberculosis H37Rv MIC90
[5] = biological target: mycobacterial F-ATP synthase (Mycobacterium bovis, UniProt A1KI93+A1KI99); assay: biochemical; parameters: species or system Mycobacterium bovis BCG
M. bovis BCG [6] = assay: microbe, parasite or virus in culture; format: cell-based; settings: Mycobacterium tuberculosis variant bovis BCG, 24 h, read-out: IC50 ATP depletion (intrabacterial ATP)

Sequence of mycobacterial F-ATP synthase (A1KI93 whole entry, looked up): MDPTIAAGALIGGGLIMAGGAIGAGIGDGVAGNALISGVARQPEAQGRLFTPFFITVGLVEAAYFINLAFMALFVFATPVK
Sequence of mycobacterial F-ATP synthase (A1KI99 whole entry, looked up): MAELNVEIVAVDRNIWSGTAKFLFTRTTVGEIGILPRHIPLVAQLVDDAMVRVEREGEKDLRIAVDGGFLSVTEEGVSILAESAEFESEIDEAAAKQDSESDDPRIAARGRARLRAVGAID

SMILES	IC50 [1]	MIC90 (M. bovis BCG [2])	MIC90 (M. smegmatis WT)	MIC50 (M. smegmatis WT)	MIC50 [3]	Inhibition of ATPase activity ([4]; 100 μM)	Inhibition of ATPase activity (in words) ([4]; 250 μM)	MIC90 (M. tuberculosis H37Rv)	IC50 [5]	IC50 (M. bovis BCG [6])	Inhibition of ATPase activity (in words) ([4]; BDQ-like)	Inhibition of ATPase activity ([4]; 250 μM)
COc1nc2ccc(Br)cc2cc1[C@@H](c1ccccc1)[C@@](O)(CCN(C)C)c1cccc2ccccc12 [BDQ, Bedaquiline, reference compound]	0.2 nM	70 nM (≈ 38.9 ng/mL)	100 nM (≈ 55.6 ng/mL)	12 ± 0.1 nM (≈ 6.67 ng/mL)	24 ± 0.1 nM (≈ 13.3 ng/mL)	78%	almost completely	400 nM (≈ 222 ng/mL)	5.3 nM	9.16 nM		
COc1cc([C@](O)(CCN(C)C)[C@@H](c2cc3cc(Br)ccc3nc2OC)c2cc(OC)nc(OC)c2OC)cc(OC)n1 [TBAJ-876]	0.0059 nM	7.2 nM (≈ 4.73 ng/mL)	6.3 nM (≈ 4.14 ng/mL)	1.1 ± 0.05 nM (≈ 0.723 ng/mL)	2.75 ± 0.02 nM (≈ 1.81 ng/mL)			125 nM (≈ 82.2 ng/mL)	0.031 nM	0.89 nM	strong	
COc1cc([C@](O)(CCN(C)C)[C@@H](c2cc3cc(Br)ccc3nc2OC)c2ccnc(OC)c2OC)cc(OC)n1 [compound 5307]	0.0087 nM	3.6 nM (≈ 2.26 ng/mL)	3.5 nM (≈ 2.2 ng/mL)	0.8 ± 0.05 nM (≈ 0.502 ng/mL)	8 ± 0.1 nM (≈ 5.02 ng/mL)			70 nM (≈ 43.9 ng/mL)	0.091 nM	0.48 nM	strong	
COc1cc([C@](O)(CCN(C)C)[C@@H](c2cc3cc(Br)ccc3nc2OC)c2cccc3c2OCCO3)cc(OC)n1 [compound 5316]	0.011 nM	3.6 nM (≈ 2.25 ng/mL)	4.6 nM (≈ 2.87 ng/mL)	0.6 ± 0.03 nM (≈ 0.375 ng/mL)	1.68 ± 0.02 nM (≈ 1.05 ng/mL)			70 nM (≈ 43.7 ng/mL)	0.047 nM	0.34 nM	strong	
COc1cc([C@](O)(CCN(C)C)[C@H](c2cc(OC(C)C)cnc2OC)c2cc3cc(Br)ccc3nc2OC)cc(OC)n1 [compound 5366]	0.0164 nM	3.4 nM (≈ 2.23 ng/mL)	5.5 nM (≈ 3.61 ng/mL)	2.1 ± 0.06 nM (≈ 1.38 ng/mL)	14.3 ± 0.07 nM (≈ 9.37 ng/mL)	36%		30 nM (≈ 19.7 ng/mL)	0.2 nM	0.32 nM		40%
